# Literature values, collected in PMC6331757, “Optimization of a peptide extraction and LC–MS protocol for quantitative analysis of antimicrobial peptides” (Future Science OA, 2018).
# System: Gram-negative (e.g., Pseudomonas aeruginosa and Escherichia coli) and Gram-positive (e.g., Staphylococcus aureus) bacteria
# Conditions: qualitative statement
sequence,measurement,value
"VRLIVAVRIWRR [AMP 1018, synthetic antimicrobial peptide 1018 (…); also used as internal standard]","antibacterial activity (kills bacteria, disperses biofilms, inhibits bacterial swarming)",potent antibacterial
